Where two headings read alike, the source gives them in different places. Ends that are not written are not given here.
Tests used:
[1] = tested on: HIV-1NL4-3; test: In vitro inhibition of HIV-1NL4-3 infection of TZM-bl cells (luciferase reporter); assay type: cell-based; settings: for IC50: TZM-bl cells; for HIV inhibition (in words): in vitro, absence of photoactivation
Protocol: Viral supernatants harvested from pNL4-3-transfected HEK293T cells were titered through the Reed-Muench method[56] based on HIV-1NL4–3 infectivity against TZM-bl cell cultures. TZM-bl cells were seeded at 2 × 10^4 cells/well in tissue culture-treated 96-well microplates from Corning (Corning, NY, USA), and incubated for 24 h. Cells were then incubated with 2-fold serial dilutions of viral supernatants for 3 h, after which the supernatant was replaced with fresh complete medium. After 45 h, TZM-bl cell infection was quantified through luciferase reporter-gene expression levels, under the control of an HIV-1 TAT-dependent LTR promoter[57] using the Luc-Screen luciferase chemiluminescence detection system. Luminescence was measured in an Infinite M200 microplate reader from Tecan (Männedorf, Switzerland). […] Titration was performed with at least four replicates to allow accurate estimation of TCID50 in viral supernatants.
The inhibitory activity of conjugates on HIV-1NL4–3 entry into TZM-bl cells was evaluated as previously described.[58] TZM-bl cells were seeded at 2 × 10^4 cells/well in tissue culture-treated 96-well microplates and incubated for 24 h. HIV-1NL4–3 viral supernatants (100 or 10 TCID50/well) were then incubated for 1 h with 2-fold serial dilutions of either nonconjugated peptide and porphyrins or conjugates, after which the infection mixture was added to TZM-bl cells. Untreated cells (in the absence of peptide–porphyrin conjugate) were used as control. Virions were incubated with cells for 3 h, after which cells were washed to remove unbound virions and new medium was added. After 45 h, infection was quantified by the Luc-Screen chemiluminescence assay. Measurements were performed in an Infinite M200 microplate reader. […] At least three independent experiments were performed for each assay.

[2] = tested on: bEnd.3 cells; test: Cell viability assay (CellTiter-Blue); assay type: cell-based, murine
Protocol: bEnd.3 cells were plated in fibronectin precoated 96-well flat-bottom clear black polystyrene plate (Corning, New York, USA) as previously described. Cells were then cultured in complete medium at 37 °C in a 5% CO2 atmosphere, with medium replaced every 2 days. […] Viability was evaluated by the CellTiter-Blue assay (Promega, Wisconsin, USA), based on resazurin reduction into highly fluorescent resorufin by metabolically active cells. By distinguishing metabolic from nonmetabolic cells, cytotoxicity can be indirectly determined. After incubation, cells were washed with PBS, pH 7.4, and 15 μL of CellTiterBlue reagent in 100 μL of complete medium was added to the cells and incubated for 1.5 h at 37 °C in 5% CO2. Fluorescence was measured at 590 nm, with excitation at 560 nm, using an Infinite F200 plate reader (Tecan, Switzerland). Complete medium and medium containing 0.25% Triton X-100 were used as positive and negative controls (100% and 0% viability), respectively. Cell viability (%) was determined using the following equation: [drawing 5] 5 where […] is the fluorescence emission of conjugate-treated cells, Fnontreated is the fluorescence emission of the control nontreated cells, and Fblank is the fluorescent emission of CellTiter reagent in complete medium without cells.

[3] = tested on: TZM-bl cells; assay type: cell-based
Protocol: TZM-bl Cell Viability Studies
The cytotoxic effects of each PPC on TZM-bl cell cultures were assessed to ensure that HIV inhibition was a result of the compounds effect on the virus and not on the host cells used in the assay. A resazurin reduction fluorometric assay was performed. Resazurin, the active compound in alamarBlue®, is a blue dye that can be reduced to a pink fluorescent intermediate, resorufin, as a result of cell metabolic activity.6 TZM-bl cells were seeded at 2x10^4 cells/well in tissue culture-treated 96-well microplates and incubated for 24 h. Cells were then incubated with serial dilutions (2-fold) of single peptide and porphyrins, or PPC, for 3 h, after which the mixture was replaced with fresh complete medium. Untreated cells (in the absence of peptide-porphyrin combinations) were used as a control. After 42 h, media was replaced with alamarBlue® reagent and incubated for an additional 3 h. Resazurin reduction was quantified by resorufin fluorescent emission intensity, measured in an Infinite M200 microplate reader. Fluorescence emission intensity was collected at 590 nm, using a fixed λ exc of 560 nm. Excitation and emission slits were 9 and 20 nm, respectively. Cell viability was calculated through the following formalism: […]
where I EI corresponds to the resorufin fluorescence emission intensity in the presence of EIs or combination, I control to the fluorescence emission intensity in the absence of EIs and I background to the background fluorescence emission from the non-reduced […]
P5, P4-MP, MP-L-P3 and P4-L-M - are presented here.
TZM-bl cell viability on the concentration range tested.
(1 picture or pasted object on this page, not shown here)
Figure S7. PPCs cytotoxic effects against TZM-bl cells. A resazurin reduction fluorometric assay, dependent on the cell metabolic activity, was used. Cell viability, normalized to the control in the absence of PPC, was measured against three concentrations of each individual PPC: MP-P3 (black), MP-P5 (white), P4-MP (red), MP-L-P3 (blue) and P4-L-MP (green).

[4] = 10 TCDI50 per well (approximate physiological conditions of HIV brain infection), read-out: IC50 HIV inhibition, 10 TCDI50
[5] = 100 TCDI50 per well, no-light, read-out: IC50 HIV inhibition, 100 TCDI50

“MP-P5: mesoporphyrin IX coupled to the N-terminal amino group of peptide P5 (SGTQEEY-amide) ({mesoporphyrin IX}-SGTQEEY-NH2)” was tested, and the IC50 [1, 4] was 10 ± 2.9 µM, the IC50 [1, 5] was 33.1 ± 1.38 µM and the “HIV inhibition (in words)” value [1] was “inhibit HIV in vitro”. For the same substance, the CC50 [2] was > 50 µM and the “TZM-bl cell viability (in words)” value [3] was “did not alter significantly”.
With “P4-MP: mesoporphyrin IX coupled to the C-terminal Lys side chain of peptide P4 (AGILKRWK-amide) (AGILKRWK(mesoporphyrin IX)-NH2)” the IC50 [1, 4] was 5.77 ± 1.17 µM, the IC50 [1, 5] was 34 ± 1.25 µM and the “HIV inhibition (in words)” value [1] was “inhibit HIV in vitro”. For the same substance, the CC50 [2] was > 50 µM and the “TZM-bl cell viability (in words)” value [3] was “did not alter significantly”.
